Source: patent US5233050A, “Antimigraine alkyl indole” (Merck & Co., Inc., priority 1992, dated 1993)

Experiments:
5-HT1D = 5-HT1D radioligand binding assay (3H-5HT, crude pig striatal membranes); details: for % inhibition of binding, 5-HT1D: mean of triplicates
Procedure: (§1) 5-HT1D radioligand binding assay was carried out according to Heuring and Peroutka (Heuring, R. E., and Peroutka, S. J., J. Neurosci., 7:894-903, 1987) with slight modifications as follows. Polypropylene tubes containing ^3 H-5HT (2 nM), cyanopindolol (100 nM), mesulergine (100 nM) and crude pig striatal membranes (10 mg wet weight per tube) in a final assay volume of 1 ml were used. All reagents and tissues were made up in […] Tris. HCl containing 0.1% ascorbate, 10 μM pargyline and 4 mM CaCl2 (pH 7.7 at room temperature). 5-HT (10 μM) was used to define non-specific binding. The incubation was initiated by the addition of membranes and carried out for 30 minutes at 37° C. Following incubation, membranes were rapidly filtered under vacuum through Whatmann GF/B filters using a Brandel Cell Harvester, followed by 2×3 ml washes with 50 mM Tris. HCl (pH 7.7 at room temperature). Bound radioactivity was determined by liquid scintillation spectrometry. 5-HT1A and 5-HT2 radioligand binding assays were performed according to Hall, et al., J. Neurochem., 44, 1685-1696, 1985 and Titeler, et al., Eur. J. Pharmacol., 117, 145-146, 1987, respectively.

5-HT1A = molecular target: T1, 5-HT1A (Rattus norvegicus, UniProt P19327); assay: 5-HT1A radioligand binding assay
T1 construct: from tissue
T1 sequence (P19327 1-422): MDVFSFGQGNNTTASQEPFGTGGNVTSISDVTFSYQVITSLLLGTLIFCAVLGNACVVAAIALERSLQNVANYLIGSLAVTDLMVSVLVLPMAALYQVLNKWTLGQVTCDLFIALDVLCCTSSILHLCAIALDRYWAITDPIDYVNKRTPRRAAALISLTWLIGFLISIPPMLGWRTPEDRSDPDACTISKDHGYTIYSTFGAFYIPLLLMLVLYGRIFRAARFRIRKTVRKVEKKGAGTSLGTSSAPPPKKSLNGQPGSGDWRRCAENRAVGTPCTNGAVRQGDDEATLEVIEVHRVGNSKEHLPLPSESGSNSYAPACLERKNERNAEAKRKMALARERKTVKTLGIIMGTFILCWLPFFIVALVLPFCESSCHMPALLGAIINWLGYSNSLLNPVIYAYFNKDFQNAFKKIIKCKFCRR
Procedure: as §1

5-HT2 = molecular target: T2, 5-HT2 (Rattus norvegicus, UniProt P14842); assay: 5-HT2 radioligand binding assay; details: mean of triplicates
T2 construct: from tissue; host or cells: rat cortical membranes (inferred from the cited Titeler et al)
T2 sequence (P14842 whole entry): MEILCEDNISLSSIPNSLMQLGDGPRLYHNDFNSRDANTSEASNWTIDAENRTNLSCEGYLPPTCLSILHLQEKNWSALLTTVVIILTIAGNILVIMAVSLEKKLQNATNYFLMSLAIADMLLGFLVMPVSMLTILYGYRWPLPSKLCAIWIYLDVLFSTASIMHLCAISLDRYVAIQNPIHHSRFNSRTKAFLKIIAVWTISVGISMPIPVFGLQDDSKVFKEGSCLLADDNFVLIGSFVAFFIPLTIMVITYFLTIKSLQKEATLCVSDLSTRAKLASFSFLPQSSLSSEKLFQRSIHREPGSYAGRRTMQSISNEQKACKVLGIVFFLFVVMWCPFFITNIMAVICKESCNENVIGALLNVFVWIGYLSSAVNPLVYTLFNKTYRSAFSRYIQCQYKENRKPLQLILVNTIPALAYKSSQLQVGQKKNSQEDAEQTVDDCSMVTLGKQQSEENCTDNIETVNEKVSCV
Procedure: as §1

SMILES | % inhibition of binding, 5-HT1D (5-HT1D; 4.1 μM) [%] | % inhibition of binding, 5-HT1D (5-HT1D; 41 μM) [%] | inhibition at 4.1 µM (5-HT1A; 4.1 μM, mean of triplicates) [%] | inhibition at 41 µM (5-HT1A; 41 μM, mean of triplicates) [%] | affinity for 5-HT1A relative to 5-HT1D and 5-HT2 (5-HT1A; 5-HT1A versus 5-HT1D and 5-HT2) | inhibition at 4.1 µM (5-HT2; 4.1 μM) [%] | inhibition at 41 µM (5-HT2; 41 μM) [%] | rank order of affinity for these subtypes (5-HT1D; 5-HT1D, 5-HT1A, 5-HT2, for comparison) | pIC50, 5-HT1D (5-HT1D; for comparison) | IC50 (5-HT1A) [nM]
C=CC(C)(C)n1cc(CN(C)C)c2ccccc21 [Compound I, 1-(1,1-dimethylallyl)-3-dimethylaminomethylindole] | 44 | 81 | 20 | 62 | less affinity for 5-HT1A than for 5-HT1D and 5-HT2 receptor subtypes | 42 | 86 | – | – | –
CNS(=O)(=O)Cc1ccc2[nH]cc(CCN(C)C)c2c1 [sumatriptan, reference compound] | – | – | – | – | – | – | – | 5-HT1D >5-HT1A >5-HT2 | 7.7 | 501
